Measurements: patent publication US20240336657A1, “G-ALPHA-S PEPTIDE INHIBITORS AND USES THEREOF” (The Regents of the University of California, priority 2021, published 2024)
Positions of bridges follow the written chain, without caps; N, C: chain ends. Non-standard residues stand in square brackets, D forms with d. Residues, ends and D or L forms follow the SMILES beside them.

Target: Gαs (Homo sapiens, UniProt P63092)
Assay: Adenylyl cyclase activity assay in HEK293 cell membranes, β2AR stimulated by isoproterenol
Type: biochemical
Set-up: endogenous in cells; host or cells: HEK293 cell membranes
Details: GTP/GDP 500/50 μM, 2 hours preincubation, 40 μM isoproterenol, read-out: IC50, inhibition of ISO-stimulated Gαs activity (cAMP)
Experimental: We sought to test the efficacy of GN13 in B2-adrenergic receptor (β2AR) mediated second messenger stimulation in cell membranes. Membrane anchored GDP-bound Gαs is inhibited by Gβγ in the resting state. It can undergo GPCR mediated GDP to GTP exchange upon agonist stimulation (Weis and Kobilka, 2018). The presence of GN13 could potentially capture the newly generated GTP-bound Gαs and inhibit its activation (FIG. 17E). To test this idea, we incubated cell membranes prepared from HEK293 cells with GN13 and examined cAMP accumulation with or without stimulation of β2-adrenergic receptor (β2AR) by isoproterenol (ISO).
GN13 inhibition of Gαs proteins in HEK293 cell membranes (FIG. 17F and FIG. 18F).
a. Cell membrane preparation: HEK293cells, GNAS KO HEK293 cells were plated two day before transfection at a density of 1M cells per 10 cm plate. […] The protein concentrations were measured using BCA, and were normalized to 750 μg/mL. […] The cAMP concentrations were measured by the LANCE Ultra cAMP kit. […]
A cAMP standard curve was generated in the same plate using the 50 μM cAMP standard in the kit. […] 10 μL of each diluted sample was mixed with 5 μL of 4× Eu-cAMP tracer and 5 μL of 4× ULight-anti-cAMP in a white, opaque Optiplate-384 microplate, incubated for 1 hour at room temperature, and the time-resolved fluorescence resonance energy transfer (TR-FRET) signals were read on a Spark 20M plate reader. […]

Gαs, sequence (P63092 whole entry): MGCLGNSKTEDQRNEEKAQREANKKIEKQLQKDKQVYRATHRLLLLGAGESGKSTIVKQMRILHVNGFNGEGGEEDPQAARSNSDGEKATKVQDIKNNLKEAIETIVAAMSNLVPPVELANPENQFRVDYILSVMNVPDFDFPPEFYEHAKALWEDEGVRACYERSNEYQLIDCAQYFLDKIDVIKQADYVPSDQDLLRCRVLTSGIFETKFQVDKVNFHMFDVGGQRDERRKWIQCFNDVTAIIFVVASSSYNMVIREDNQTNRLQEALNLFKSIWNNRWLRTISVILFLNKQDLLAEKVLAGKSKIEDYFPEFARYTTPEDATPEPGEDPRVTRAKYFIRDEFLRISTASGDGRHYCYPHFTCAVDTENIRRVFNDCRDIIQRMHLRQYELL

Question: For CC[C@H](C)[C@@H]1NC(=O)[C@H](C)NC(=O)[C@H](Cc2ccc(O)cc2)NC(=O)[C@H](C(C)C)NC(=O)[C@H](CO)NC(=O)[C@H](CCC(=O)O)NC(=O)[C@H](Cc2ccccc2)NC(=O)[C@@H](Cc2ccc(O)cc2)NC(=O)CSC[C@@H](C(=O)NCC(N)=O)NC(=O)[C@H](CC(C)C)NC(=O)[C@H]([C@@H](C)O)NC(=O)CNC(=O)[C@H](Cc2c[nH]c3ccccc23)NC1=O [GN13] ({CH2CO}-[dY]FESVYAIWGTLCG-NH2; thioether N-13), which IC50 is on record?
Answer: The IC50 was 12.2 ± 2.51 µM.
